Experimental findings from publication PMC5039417, “Aberrant Glycosylation of Anchor-Optimized MUC1 Peptides Can Enhance Antigen Binding Affinity and Reverse Tolerance to Cytotoxic T Lymphocytes” (Biomolecules, 2016) are described below.

In assay [1] the test system is Autologous DCs pulsed with MUC1 peptides. Kind of assay: 51Cr-release assay against peptide-pulsed autologous DCs. The class given is cell-based, human. The settings on record: four normal donors, DCs pulsed with 50 μg/mL peptide and PADRE 10 μg/mL, E:T 100:1. As to the method:
Autologous DCs pulsed with various MUC1 peptides (50 μg/mL) and PADRE peptide (10 μg/mL) were used as targets. Effector:target ratio was 100:1 and spontaneous release was less than 15% of complete lysis. * p < 0.05 (Student’s t-test) compared to the negative peptide.
The lytic activity of the in vitro stimulated peptide-specific CTLs was measured by a standard six-hour ^51Cr-release assay. The target cells used were MCF-7 breast cancer cell lines which express MUC1^+ and HLA-A*0201, and MDA-MB-231 cells, which are MUC1 negative and express HLA-A*0201. All tumor targets were treated with IFNγ one-day prior to use to up-regulate class I surface expression. Autologous DCs pulsed with the recall peptides, other modified peptides and the native peptide were also used as targets to evaluate cross-reactivity of MUC1-specific CTLs. The targets were labeled with Na^51CrO4 (0.1 mCi/mL) for 2 h, washed 3 times with PBS and re-suspended in T cell medium to a concentration of 2 × 10^4 cells/mL. […] After incubation, 30 μL of supernatant was transferred onto LUMA plates (Perkin Elmer, Waltham, MA, USA) and radioactive ^51Cr release was measured in a Topcount Micro-scintillation Counter (Packard Biosciences, Shelton, CT, USA). Percent specific lysis was calculated according to the following formula: Percent specific lysis = (experimental cpms − spontaneous cpms)/(complete cpms − spontaneous cpms) × 100. […]

In assay [2] the test system is MCF-7 cells (HLA-A*0201+, MUC1+). The experiment in a line: 51Cr-release assay, peptide-induced CTLs from breast cancer patients. The class given is cell-based, human. The settings on record: all three breast cancer patient samples, E:T 100:1. The text has this: Figure 7 In vitro stimulation of T cells from HLA-A*0201^+ cancer patients (peri-menopausal) with anchor-optimized and/or glycosylated MUC1 peptides elicited strong CTL activity. (A) PBLs underwent two rounds of stimulation and sorted CD8^+ T cells were subjected to a ^51Cr-release assay. Targets were MCF-7 cells (HLA-A*0201^+, MUC1^+). Effector:target ratio was 100:1 and spontaneous release was less than 25% of complete lysis. The filled triangles designate normal individuals and the open triangles designate breast cancer patients. […] Following two rounds of stimulation, CD8^+ cells were maintained for 24 h on an ELISpot plate. Spot numbers were determined using computer assisted video image analysis by Zellnet Consulting Inc. (FortLee, NJ, USA). There was no evidence of a significance difference in spot numbers between cancer patients and healthy controls (Wilcoxon rank sum test; p > 0.05).
An optimized protocol for the generation of peptide-specific CTLs was developed that relied upon autologous DCs for stimulation. PBMCs (2 × 10^6 cells/mL of AIM V medium) were transferred to a 24-well plate and incubated for 2 h at 37 °C. Non-adherent lymphocytes were washed off with PBS and the adherent cells were cultured in X-VIVO medium containing GM-CSF (1000 U/mL) and IL-4 (1000 U/mL) to generate DCs. […] DCs were analyzed by flow cytometry for appropriate maturation markers. […] Five to seven days later, T cells were analyzed for cytolytic activity by ^51Cr-release assay and interferon gamma production by ELISPOT.
The lytic activity of the in vitro stimulated peptide-specific CTLs was measured by a standard six-hour ^51Cr-release assay. […] After incubation, 30 μL of supernatant was transferred onto LUMA plates (Perkin Elmer, Waltham, MA, USA) and radioactive ^51Cr release was measured in a Topcount Micro-scintillation Counter (Packard Biosciences, Shelton, CT, USA). […]

“SLAPT(Tn)VHNV [P4, glycosylated anchor-optimized MUC1 peptide]”: in assay [1], the “Lytic reactivity of CTLs against DCs pulsed with immunizing or native P1 peptide” value is given as “reacted against the native P1:STAPPVHNV”. Moreover, the “Lysis of MCF-7 cells by T cells from cancer samples” value in assay [2] is recorded as “greater than 30%”.
